The structures appear in SMILES notation. Where a name gives a salt, the structure may show the parent alone.

The melting point is the temperature of the solid-liquid transition. In the case of `CCN1CCN(c2nc(-c3ccc(OC)cc3)cc3ccncc23)CC1` (as salt: hydrochloride) [Example 428, 1-(4-ethylpiperazin-1-yl)-3-(4-methoxyphenyl)-7-azaisoquinoline], the melting point was 222 °C (dec.).

As for `CCN1CCN(c2nc(-c3ccc(NC(C)=O)cc3)cc3ccccc23)CC1` (as salt: hydrochloride) [Example 68, 3-(4-Acetamidephenyl)-1-(4-Ethylpiperazin-1-Yl)Isoquinoline Hydrochloride], the melting point was in the range of 180 to 182 °C.

Consider `CCN1CCN(c2nc(-c3ccc(OCC(O)COC)cc3)cc3ccccc23)CC1` (stereo not drawn) (as salt: hydrochloride) [Example 343, 1-(4-ethylpiperazin-1-yl)-3-[4-(2-hydroxy-3-methoxypropoxy)phenyl]isoquinoline dihydrochloride], for which the melting point was 216.5 to 218 °C (dec.).

For the molecule `CCN1CCN(c2nc(C(C)(O)c3ccc(OC)cc3)cc3ccccc23)CC1` (stereo not drawn) (as salt: oxalate), the melting point was 179 to 181 °C.

Consider `CCN1CCN(c2nc(-c3ccc(C(C)(C)CCO)cc3)cc3ccccc23)CC1` (as salt: oxalate) [Example 390], for which the melting point is 134 to 135 °C.

Regarding `CCN1CCN(c2nc(-c3ccc(OCCO)cc3)cc3cccc(F)c23)CC1` (as salt: hydrochloride) [Example 234, 1-(1-ethylpiperazin-4-yl)-8-fluoro-3-[4-(2-hydroxyethoxy)phenyl]isoquinoline dihydrochloride], the melting point was in the range of 215 to 219 °C.

Molecule `CCN1CCN(c2nc(/C=C/c3ccc(N4CCOCC4)nn3)cc3ccccc23)CC1` (as salt: oxalate) [Example 214, 3-{(E)-2-[3-(4-Morpholinyl)Pyridazin-6-Yl]Ethenyl}-1-(4-Ethylpiperazin-1-Yl)Isoquinoline Oxalate] showed a melting point of 88 to 90 °C.

`CCN1CCN(c2nc(-c3ccc(OCC(C)(C)O)cc3)cc3ccccc23)CC1` (as salt: hydrochloride) [Example 309, 1-(1-ethylpiperazin-4-yl)-3-[4-(2-hydroxy-2-methylpropoxy)phenyl]isoquinoline dihydrochloride]: the melting point is 129 to 134 °C.

With `CCN1CCN(c2nc(-c3ccc(N4CCOCC4)cc3)cc3ccccc23)CC1` (as salt: hydrochloride) [Example 160, 3-[4-(4-morpholinyl)phenyl]-1-(4-ethylpiperazin-1-yl)isoquinoline dihydrochloride], the melting point is 242 to 245 °C (dec.).

The molecule `CCC(F)c1ccc(-c2cc3ccccc3c(N3CCN(CC)CC3)n2)cc1` (stereo not drawn) (as salt: hydrochloride) [Example 5, 1-(4-ethylpiperazin-1-yl)-3-[4-(1-fluoropropyl)phenyl]isoquinoline Hydrochloride] came in with a melting point of 147 to 149 °C.

Regarding `CCN1CCN(c2nc(-c3ccc(OCCO)c(Cl)c3)cc3ccccc23)CC1` (as salt: hydrochloride) [Example 39, 3-[3-chloro-4-(2-hydroxyethoxy)phenyl]-1-(4-ethylpiperazin-1-yl)isoquinoline hydrochloride], the melting point fell in the range of 138 to 140 °C.

The molecule `CCN1CCN(c2nc(-c3ccc(CCCO)nc3)cc3ccsc23)CC1` (as salt: hydrochloride) [Example 429, 7-(4-ethylpiperazin-1yl)-5-[2-(3-hydroxypropyl)pyridin-5-yl]thieno[2,3-c]pyridine hydrochloride] showed a melting point of 204 to 205 °C.

In turn, `CCN1CCN(c2nc(-c3ccc(C4=CCC(O)CC4)cc3)cc3ccsc23)CC1` (stereo not drawn) (as salt: hydrochloride) [Example 270, 5-[4-(4-hydroxycyclohexen-1-yl)phenyl]-7-(4-ethylpiperazin-1-yl)thieno[2,3-c]pyridine hydrochloride] displayed a melting point of 168 to 170 °C.

`CCN1CCN(c2nc(-c3ccc(CCNS(=O)(=O)CC)cc3)cc3ccccc23)CC1` (as salt: hydrochloride) [Example 79, 3-(4-Ethylsulfonylaminoethylphenyl)-1-(4-Ethylpiperazin-1-Yl)Isoquinoline Hydrochloride] returned a melting point of 194 to 197 °C.

For `CCN1CCN(c2nc(-c3ccc(OC)cc3)cc3cccc(F)c23)CC1` (as salt: hydrochloride) [Example 233, 1-(1-ethylpiperazin-4-yl)-8-fluoro-3-(4-methoxyphenyl)isoquinoline dihydrochloride], the melting point was 222 to 227 °C.

As for `CCN1CCN(c2nc(-c3ccc(C(F)CCO)cc3)cc3ccccc23)CC1` (stereo not drawn) (as salt: hydrochloride) [Example 27, 1-(1-Ethylpiperazin-4-yl)-3-[4-(3-hydroxy-1-fluoropropyl)phenyl]isoquinoline], the melting point fell in the range of 141 to 146 °C.

With `CCN1CCN(c2nc(NC(=O)c3ccccc3)cc3ccccc23)CC1` (as salt: hydrochloride) [Example 421, 3-benzamide-1-(4-ethylpiperazin-1-yl)isoquinoline], the melting point was 160 to 162 °C.

In turn, `CCN1CCN(c2nc(-c3ccc(OC)cc3)cc3cccc(C)c23)CC1` (as salt: hydrochloride) returned a melting point of 248 to 253 °C.

In turn, `CCN1CCN(c2nc(-c3cccc(OCCO)c3)cc3sccc23)CC1` (as salt: hydrochloride) [Example 284, 4-(1-ethylpiperazin-4-yl)-6-[3-(2-hydroxyethoxy)phenyl]thieno-[3,2-c]pyridine dihydrochloride] had a melting point of 126 to 130 °C.

Turning to `CCN1CCN(c2nc(-c3ccc(OCCO)cc3)cc3ccccc23)CC1` (as salt: hydrochloride) [Example 36, 1-(4-ethylpiperazin-1-yl)-3-[4-(2-hydroxyethoxy)phenyl]isoquinoline dihydrochloride], the melting point lay within 127 to 129 °C.

For the molecule `CCN1CCN(c2nc(/C=C/c3ccc(OCCO)cc3)cc3ccsc23)CC1` (as salt: hydrochloride) [Example 431, 7-(4-ethylpiperazin-1-yl)-5-[4-(2-hydroxyethoxy)styryl]thieno[2,3-c]pyridine hydrochloride], the melting point was in the range of 143 to 145 °C.

Consider `CCN1CCN(c2nc(-c3ccccc3OC)cc3ccc(OC)cc23)CC1` (as salt: hydrochloride), for which the melting point lay within 178 to 179 °C.

For `CCN1CCN(c2nc(-c3ccc(N4C[C@@H](C)O[C@@H](C)C4)nc3)cc3ccccc23)CC1` (as salt: hydrochloride) [Example 149, 3-[2-(2,6-dimethylmorpholin-4-yl)pyridin-5-yl]-1-(4-ethylpiperazin-1-yl)isoquinoline trihydrochloride], the melting point is 180 °C.

Regarding `CCN1CCN(c2nc(-c3ccc(OCCO)cn3)cc3ccccc23)CC1` (as salt: hydrochloride) [Example 124, 1-(1-Ethylpiperazin-4-yl)-3-[5-(2-Hydroxyethoxy)Pyridin-2-yl]Isoquinoline], the melting point fell in the range of 110 to 115 °C.

On to `CCN1CCN(c2nc(-c3ccc(CCCO)c(F)c3)cc3ccccc23)CC1` (as salt: hydrochloride) [Example 29], for which the melting point was 126 to 127 °C (dec.).

For the molecule `CCNS(=O)(=O)c1ccc(-c2cc3ccccc3c(N3CCN(CCO)CC3)n2)cc1` (as salt: oxalate), the melting point was in the range of 172 to 174 °C.

`CCN1CCN(c2nc(C#CCN3CCOCC3)cc3ccccc23)CC1` (as salt: oxalate) [Example 180, 3-[3-(4-Morpholinyl)-1-Propynyl]-1-(4-Ethylpiperazin-1-Yl)Isoquinoline Oxalate] had a melting point of 231 to 233 °C.

The molecule `CCCS(=O)(=O)c1ccc(-c2cc3ccccc3c(N3CCN(CCO)CC3)n2)cc1` (as salt: oxalate) showed a melting point of 127 to 129 °C.

With `CCN1CCN(c2nc(-c3ccc(S(C)(=O)=O)cc3)cc3ccsc23)CC1` (as salt: hydrochloride) [Example 445, 7-(4-ethylpiperazin-1-yl)-5-(4-methanesulfonylphenyl)thieno)[2,3-c]pyridine dihydrochloride], the melting point is 222.5 to 225 °C (dec.).

For the molecule `CCN1CCN(c2nc(-c3ccc(S(=O)(=O)CCCO)cc3)cc3ccccc23)CC1` (as salt: hydrochloride) [Example 352, 1-(4-ethylpiperazin-1-yl)-3-[4-(3-hydroxypropyl)sulfonylphenyl]isoquinoline dihydrochloride], the melting point is 213 to 215 °C (dec.).

In turn, `CCN1CCN(c2nc(C(=O)c3ccccc3OC)cc3ccccc23)CC1` (as salt: oxalate) [Example 111, 3-(2-Methoxyphenylcarbonyl)-1-(4-ethylpiperazin-1-yl)isoquinoline Oxalate] had a melting point of 153 to 156 °C.

In turn, `CCCNC(=O)c1ccc(-c2cc3ccccc3c(N3CCN(CC)CC3)n2)cc1` (as salt: hydrochloride) [Example 63, 1-(4-Ethylpiperazin-1-Yl)-3-(4-N-Propylaminocarbonylphenyl)Isoquinoline Hydrochloride] showed a melting point of 149 to 150 °C.

Molecule `COc1ccc(-c2cc3ccccc3c(N3CCN(CC(N)=O)CC3)n2)cc1` (as salt: hydrochloride) [Example 314, 1-[1-(carbamoylmethyl)piperazin-4-yl]-3-(4-methoxyphenyl)isoquinoline dihydrochloride] gave a melting point of 153 to 155 °C.

`CCN1CCN(c2nc(C=C(COC)c3ccccc3)cc3ccccc23)CC1` (stereo in doubt) (as salt: oxalate) [Example 208, 3-[(E)-2-Methoxymethyl-2-Phenylethenyl]-1-(4-Ethylpiperazin-1-Yl)Isoquinoline Oxalate] showed a melting point of 180 to 182 °C.

`CCN1CCN(c2nc(C#Cc3ccc(OCCO)cc3)cc3ccccc23)CC1` (as salt: hydrochloride) [Example 183, 1-(1-Ethylpiperazin-4-Yl]-3-[4-(2-Hydroxyethoxy)Phenylethynyl]Isoquinoline Dihydrochloride] returned a melting point of 205 to 208 °C.

For `CCN1CCN(c2nc(-c3ccc4c(c3)CCC4O)cc3ccccc23)CC1` (stereo not drawn) (as salt: oxalate) [Example 415, 1-(4-ethylpiperazin-1-yl)-3-(1-hydroxyindan-5-yl)isoquinoline], the melting point was 193 to 195 °C.
